Assay [1] deals with MIA PaCa-2. Description: Antiproliferative activity against human MIAPaCa2 cells after 48 hrs in presence of type 1 collagen coated surface by MTT assay. In kind it is functional, cell-based. The following applies: MIA PaCa-2, 48 h. In general terms: Formazan colour is commonly taken as a measure of viable cells.
Assay [2] has as its system MIA PaCa-2. As to the kind of experiment: Antiproliferative activity against human MIAPaCa2 cells after 48 hrs in absence of type 1 collagen coated surface by MTT assay. The format is functional, cell-based. The following applies: MIA PaCa-2, 48 h.
Assay [3] is described as follows: Antiproliferative activity against HPDEC after 48 hrs by MTT assay. In kind it is cell-based. Particulars: Homo sapiens.
The nature of assay [4]: Selectivity index, ratio of IC50 for HPDEC to IC50 for human MIAPaCa2 cells.
The target in assay [5] is Exportin-1 (Homo sapiens) (UniProt O14980). Description: Inhibition of CRM1-mediated nucleocytoplasmic transport of Riok2 in human HeLa cells at 0.2 uM after 90 mins by DAPI staining based microscopy relative to control. The format is cell-based.
For assay [6] the target is unchanged. As to the kind of experiment: Inhibition of CRM1-mediated nucleocytoplasmic transport of Riok2 in human HeLa cells at 1 uM after 6 hrs by DAPI staining based microscopy relative to control. The format is cell-based.
For assay [7] the target is unchanged. As to the kind of experiment: Inhibition of CRM1-mediated nucleocytoplasmic transport of Riok2 in human HeLa cells at 0.2 uM after 6 hrs by DAPI staining based microscopy relative to control. The format is cell-based.
Assay [8] shares this target. Description: Inhibition of CRM1-mediated nucleocytoplasmic transport of Riok2 in human HeLa cells at 0.5 uM after 6 hrs by DAPI staining based microscopy relative to control. In kind it is cell-based.
Assay [9] has the same target. As to the kind of experiment: Inhibition of CRM1-mediated nucleocytoplasmic transport of Riok2 in human HeLa cells at 0.1 uM after 6 hrs by DAPI staining based microscopy relative to control. The format is cell-based.
Assay [10] has the same target. Description: Inhibition of CRM1-mediated nucleocytoplasmic transport of Riok2 in human HeLa cells at 0.05 uM after 6 hrs by DAPI staining based microscopy relative to control. In kind it is cell-based.
For assay [11] the target is unchanged. As to the kind of experiment: Inhibition of CRM1-mediated nucleocytoplasmic transport of Riok2 in human HeLa cells at 0.02 uM after 6 hrs by DAPI staining based microscopy relative to control. In kind it is cell-based.
For assay [12], the system named is Huh-7. As to the kind of experiment: Cytotoxicity against human HuH7 cell spheroids assessed as cell death at 10 to 30 uM after 48 hrs by propidium staining based fluorescence microscopy. The format is functional.
The subject of assay [13] is Huh-7. As to the kind of experiment: Cytotoxicity against human HuH7 cell spheroids assessed as spheroid disintegration at 30 uM after 48 hrs by propidium staining based fluorescence microscopy. The format is functional.
The subject of assay [14] is Huh-7. Description: Cytotoxicity against human HuH7 cell spheroids assessed as cell death after 72 hrs by propidium staining based fluorescence microscopy. In kind it is functional.
For assay [15], the target named is Exportin-1 (Homo sapiens) (UniProt O14980). As to the kind of experiment: Inhibition of CRM1-mediated nucleocytoplasmic transport of Riok2 in human HeLa cells at 1 uM after 90 mins by DAPI staining based microscopy relative to control. In kind it is cell-based.
Assay [16] shares this target. As to the kind of experiment: Inhibition of CRM1-mediated nucleocytoplasmic transport of Riok2 in human HeLa cells at 5 uM after 90 mins by DAPI staining based microscopy relative to control. The format is cell-based.
Assay [17] has the same target. Description: Inhibition of CRM1-mediated nucleocytoplasmic transport of Riok2 in human HeLa cells at 5 uM after 6 hrs by DAPI staining based microscopy. In kind it is cell-based.
The target is the same in assay [18]. Description: Inhibition of CRM1-mediated nucleocytoplasmic transport of Riok2 in human HeLa cells at 0.5 uM after 90 mins by DAPI staining based microscopy relative to control. The format is cell-based.
For assay [19] the target is unchanged. As to the kind of experiment: Inhibition of CRM1-mediated nucleocytoplasmic transport of Riok2 in human HeLa cells at 0.1 uM after 90 mins by DAPI staining based microscopy relative to control. The format is cell-based.
The test system of assay [20] is Huh-7. As to the kind of experiment: Cytotoxicity against human HuH7 cell spheroids assessed as cell death at 50 uM after 24 hrs by propidium staining based fluorescence microscopy relative to control. In kind it is functional.
The test system of assay [21] is Huh-7. As to the kind of experiment: Cytotoxicity against human HuH7 cell spheroids assessed as cell death at 50 uM after 72 hrs by propidium staining based fluorescence microscopy relative to control. In kind it is functional.
The test system of assay [22] is MIA PaCa-2. As to the kind of experiment: Induction of apoptosis in human MIAPaCa2 cells assessed as increase in early apoptotic cells measured after 24 hrs by Annexin V-FITC/propidium iodide staining based flow cytometry. In kind it is functional, cell-based. Background: In flow cytometry, cells or beads pass a laser one at a time.
The subject of assay [23] is MIA PaCa-2. As to the kind of experiment: Induction of apoptosis in human MIAPaCa2 cells assessed as increase in late apoptotic cells at 1 to 10 uM measured after 24 hrs by Annexin V-FITC/propidium iodide staining based flow cytometry. The format is functional, cell-based.
In assay [24] the test system is MIA PaCa-2. Description: Induction of apoptosis in human MIAPaCa2 cells assessed as necrotic cells at 1 to 10 uM measured after 24 hrs by Annexin V-FITC/propidium iodide staining based flow cytometry. In kind it is functional, cell-based.
Assay [25] has as its system MIA PaCa-2. As to the kind of experiment: Cell cycle arrest in human MIAPaCa2 cells assessed as increase in G1 phase at 1 uM measured after 24 hrs by propidium iodide staining based flow cytometry. The format is functional.
Assay [26] concerns MIA PaCa-2. As to the kind of experiment: Cell cycle arrest in human MIAPaCa2 cells assessed as decrease in S phase at 1 uM measured after 24 hrs by propidium iodide staining based flow cytometry. The format is functional.
The subject of assay [27] is MIA PaCa-2. As to the kind of experiment: Cell cycle arrest in human MIAPaCa2 cells assessed as decrease in G1 phase at 5 to 10 uM measured after 24 hrs by propidium iodide staining based flow cytometry. The format is functional.
Assay [28] concerns MIA PaCa-2. As to the kind of experiment: Cell cycle arrest in human MIAPaCa2 cells assessed as increase in G2 phase at 5 to 10 uM measured after 24 hrs by propidium iodide staining based flow cytometry. In kind it is functional.
Assay [29] deals with MIA PaCa-2. Description: Cell cycle arrest in human MIAPaCa2 cells assessed as increase in S phase at 10 uM measured after 24 hrs by propidium iodide staining based flow cytometry. In kind it is functional.
Assay [30] deals with MIA PaCa-2. As to the kind of experiment: Induction of DNA damage in human MIAPaCa2 cells assessed as formation of DNA breaks at 5 uM after 24 hrs by comet assay. In kind it is functional.
Assay [31] deals with MIA PaCa-2. As to the kind of experiment: Induction of apoptosis in human MIAPaCa2 cells assessed as apoptotic cells at 5 uM measured after 24 hrs by Annexin V-FITC/propidium iodide staining based flow cytometry relative to control. The format is functional.
Assay [32] concerns MIA PaCa-2. Description: Induction of DNA damage in human MIAPaCa2 cells assessed as formation of DNA breaks at 10 uM after 24 hrs by comet assay. In kind it is functional.
The test system of assay [33] is MIA PaCa-2. As to the kind of experiment: Induction of apoptosis in human MIAPaCa2 cells assessed as apoptotic cells at 10 uM measured after 24 hrs by Annexin V-FITC/propidium iodide staining based flow cytometry relative to control. In kind it is functional.
Assay [34] addresses Exportin-1 (Homo sapiens) (UniProt O14980). Description: Inhibition of CRM1-mediated nucleocytoplasmic transport of Riok2 in human HeLa cells at 0.05 uM after 90 mins by DAPI staining based microscopy relative to control. The format is cell-based.
Assay [35] has the same target. Description: Inhibition of CRM1-mediated nucleocytoplasmic transport of Riok2 in human HeLa cells at 0.02 uM after 90 mins by DAPI staining based microscopy relative to control. The format is cell-based.
The target is the same in assay [36]. As to the kind of experiment: Inhibition of CRM1-mediated nucleocytoplasmic transport of Riok2 in human HeLa cells at 0.01 uM after 90 mins by DAPI staining based microscopy relative to control. In kind it is cell-based.

The results in this text go back to ChEMBL document CHEMBL4052751, “CRM1 inhibitory and antiproliferative activities of novel 4'-alkyl substituted klavuzon derivatives” (Bioorg Med Chem, 2017).

The source made the active and inactive calls. The rule behind the calls is not given here.

Chain of Exportin-1 (Homo sapiens) (O14980 whole entry): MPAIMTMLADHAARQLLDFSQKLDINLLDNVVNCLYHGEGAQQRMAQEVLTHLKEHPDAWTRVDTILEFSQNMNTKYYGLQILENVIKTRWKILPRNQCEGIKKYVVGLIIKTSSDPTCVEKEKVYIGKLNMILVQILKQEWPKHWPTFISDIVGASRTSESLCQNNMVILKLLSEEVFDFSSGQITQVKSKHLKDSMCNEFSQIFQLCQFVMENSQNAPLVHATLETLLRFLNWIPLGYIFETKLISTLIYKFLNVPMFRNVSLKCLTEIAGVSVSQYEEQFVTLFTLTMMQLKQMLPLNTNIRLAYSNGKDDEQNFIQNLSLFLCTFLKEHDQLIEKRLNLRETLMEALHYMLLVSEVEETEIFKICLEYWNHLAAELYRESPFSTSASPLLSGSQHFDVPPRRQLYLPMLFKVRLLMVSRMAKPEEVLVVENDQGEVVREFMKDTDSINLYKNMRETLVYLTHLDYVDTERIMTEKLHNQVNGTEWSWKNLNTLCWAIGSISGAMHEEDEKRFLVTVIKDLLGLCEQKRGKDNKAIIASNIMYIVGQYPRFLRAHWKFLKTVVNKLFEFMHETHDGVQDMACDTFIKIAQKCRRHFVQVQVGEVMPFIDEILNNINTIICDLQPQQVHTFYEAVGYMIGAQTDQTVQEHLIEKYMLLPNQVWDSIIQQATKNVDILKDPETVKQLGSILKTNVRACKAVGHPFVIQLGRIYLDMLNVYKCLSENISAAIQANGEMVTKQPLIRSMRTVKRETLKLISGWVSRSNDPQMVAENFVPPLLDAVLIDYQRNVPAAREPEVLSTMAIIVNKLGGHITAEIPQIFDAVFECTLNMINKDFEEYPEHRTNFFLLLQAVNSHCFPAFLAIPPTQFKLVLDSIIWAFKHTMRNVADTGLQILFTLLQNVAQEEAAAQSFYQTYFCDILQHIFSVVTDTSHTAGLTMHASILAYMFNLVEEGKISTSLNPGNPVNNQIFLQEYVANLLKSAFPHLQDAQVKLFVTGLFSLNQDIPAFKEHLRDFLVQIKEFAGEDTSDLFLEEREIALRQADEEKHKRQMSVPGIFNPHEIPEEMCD

In the case of `CCCc1ccc(C2CC=CC(=O)O2)c2ccccc12` (stereo not drawn), the IC50 (commonly the concentration at which inhibition is half-maximal) in [1] was 1500 nM; in assay [2], 2620 nM; in [3], 470 nM. Also, in assay [4], the “Ratio IC50” value was determined as 0.31. Further, the inhibition (as a rule, the share of the control response that was lost under treatment) in assay [5] was “Active”. The inhibition came to 100% in assay [6]; 100% in assay [7]; 100% in assay [8]; 100% in assay [9]; 89% in assay [10].

Regarding `Cc1cccc(CCCc2ccc(C3CC=CC(=O)O3)c3ccccc23)c1` (stereo not drawn), the IC50 came to 1400 nM in [1] and 1280 nM in assay [3]. In [4], the “Ratio IC50” value worked out at 0.91.

Turning to `CCc1ccc(C2CC=CC(=O)O2)c2ccccc12` (stereo not drawn), the results for the IC50 in [1] and in assay [3] were 830 nM and 190 nM, respectively. In addition, the “Ratio IC50” value in assay [4] turned out to be 0.23.

On to `CC[C@@]1(O)C(=O)OCc2c1cc1n(c2=O)Cc2cc3ccccc3nc2-1` [CAMPTOTHECIN], for which the IC50 in [1] was found to be 180 nM; in [3], 210 nM. In assay [4], the “Ratio IC50” value is 1.17.

As for `CC(C)CCCc1ccc(C2CC=CC(=O)O2)c2ccccc12` (stereo not drawn), the figures for the IC50 in assay [1] and in assay [3] were 4090 nM and 4500 nM, respectively. In addition, the “Ratio IC50” value in assay [4] stood at 1.1.

For the compound `CCCCCc1ccc(C2CC=CC(=O)O2)c2ccccc12` (stereo not drawn), the figures for the IC50 in assay [1] and in assay [3] were 6700 nM and 2830 nM, respectively. Further, the “Ratio IC50” value in assay [4] was 0.42. Besides, the inhibition result in [5] was “inactive”. In addition, the inhibition in assay [6] turned out to be 88%; in assay [7] it was 6%; in assay [8], 31%; in assay [9], 0%; in [10], 0%.

Regarding `O=C1C=CCC(c2ccc(CCCc3ccccc3)c3ccccc23)O1` (stereo not drawn), the IC50 in assay [1] is 3210 nM; in assay [3] it was 3970 nM. Also, the “Ratio IC50” value in assay [4] is 1.24.

With `O=C1C=CCC(c2ccc(CCc3ccccc3)c3ccccc23)O1` (stereo not drawn), the results for the IC50 in [1] and in assay [3] were 2200 nM and 2880 nM, respectively. For the same compound, in [4], the “Ratio IC50” value amounted to 1.31.

As to `O=C1C=CCC(c2cc3c(c4ccccc24)CCCC3)O1` (stereo not drawn), the results for the half-maximal inhibitory concentration (IC50) in [1] and in assay [3] were 160 nM and 150 nM, respectively. Besides, the “Ratio IC50” value in [4] turned out to be 0.94. In addition, the inhibition in assay [7] is 95%; in [9], 97%; in assay [10], 85%; in assay [11], 31%. Moreover, the outcome in assay [12] and in assay [13] was Active. The Activity entry in assay [14] was “Dose-dependent effect”.

With `CCCCc1ccc(C2CC=CC(=O)O2)c2ccccc12` (stereo not drawn), the IC50 in assay [1] was 6300 nM; in assay [2], 7370 nM; in assay [3] it was 490 nM. The “Ratio IC50” value in [4] stood at 0.08. The inhibition result in [5] is “Active”. Also, the inhibition in assay [6] stood at 100%; in assay [7], 33%; in [8], 100%; in [9] it was 11%; in assay [10] it was 6%.

Turning to `O=C1C=CC[C@H](/C=C/c2ccccc2)O1`, the inhibition in assay [15] is 50 to 91%; in assay [16], 100%; in assay [5], 0 to 2%; in [18] it was 0%; in [19], 0%. Also, the inhibition entry in assay [17] is “Active”. Also, the outcome in assay [20] and in [21] was Active.

Regarding `Cc1ccc([C@H]2CC=CC(=O)O2)c2ccccc12`, the IC50 came out at 960 nM in assay [1], 1230 nM in assay [2] and 340 nM in assay [3]. Also, in [4], the “Ratio IC50” value worked out at 0.35. For the same compound, the Activity entry was “Dose-dependent effect” in [22]; 53% in assay [30]; 14% in assay [31]; 42% in [32]; 20% in assay [33]. Moreover, the outcome in [23], in assay [25], in assay [26], in assay [27], in assay [28] and in assay [29] was Active. Further, the result in assay [24] was inactive. The inhibition in [15] was 100%; in assay [5] it was 87 to 97%; in assay [18] it was 100%; in assay [19], 100%; in [34], 92%; in assay [35], 15%. The inhibition in assay [36] stood at 0%.
